{
  "source": "patent EP0452101B1",
  "about": "“Spiro bridged and unbridged heterocyclic compounds” (ISRAEL INSTITUTE FOR BIOLOGICAL RESEARCH, priority 1990, dated 1991)",
  "key": {"[1]": {"test_system": "Male white mice of the CD-1 strain", "assay": "Pharmacodynamic profile and general toxicity, Part B (signs, mortality, LD50)", "format": "in vivo", "parameters": "key to Altered spontaneous motor activity (Mot): increased (inc); decreased (dec); key to Piloerection (Pil) / Hypothermia (Hyp) / Salivation (Sal) / Lacrimation (Lac) / Diarrhea (Dia) / Mydriasis (Myd): sli = slight; mod = moderate; sev = severe", "settings": "for Analgesia (Ana) / Convulsive seizure (Con) / Respiratory distress (Res) / Tremors (Tre): animals affected/treated", "text": "Male white mice of the CD-1 strain (Charles River, UK), within the body weight range of 18-26 g, were used throughout this study, carried out on AF123, AF125 and AF125(N).\nFurthermore, these initial trials clearly established that the major signs of reactions to treatment consisted primarily of signs characteristic for potential cholinomimetic activity of the test material, such as tremors, salivation, lacrimation, diarrhea, analgesia, hypothermia and vasodilation. […]"}, "[2]": {"test_system": "AF64A-injected mature rats", "assay": "8-arm radial maze (RAM) in AF64A-treated rats, Part A", "format": "in vivo", "settings": "AF125 0.5 mg./kg. i.p.", "description": "This animal model mimics the cholinergic hypofunction and cognitive dysfunction in SDAT (Fisher and Hanin, loc cit; Fisher et al, Neurosci. Lett. 102: 325-331, 1989); the method described in the latter publication was used here.\nForty eight mature male (11-12 months) rats which were used in this study. They were injected icv with AF64A (3 nmole/2 µl./side) 8 months earlier, at the age of three months. One week before the behavioral testing, rats were transferred to individual cages and were food restricted until reaching 90% of their free feeding weight (the rats had free access to water). The room was illuminated 12 hrs a day (6:00 to 18:00) and behavioral testing sessions were carried out during the mornings. After reaching 90% of free feeding weight, rats received about 4 food pellets per day (Altromin, 15 g.) in order to further reduce the rats' weights. Two days before behavioral testing the rats were fed with precision pellets (Bioserv Inc.) which were later used for reinforcement in the maze.\nBehavioral tests were conducted in an elevated (70cm) 8-arms radial maze, made of PVC. […]\nDue to the size of the batch (48 rats) the experiment was conducted in two phases. […] The correct choices, number of errors and total time scores were analyzed by a 2-way ANOVA (2x2) (Injection-AF64A/saline and Treatment-AF125 0.5 mg./kg./saline)."}, "[3]": {"test_system": "CA1 neurons in the hippocampal slice", "assay": "Electrophysiological evaluation in rat hippocampal slices", "description": "In general terms the effects of microdrops of AF150, ACh and PZ were applied to rat hippocampal cells recorded intracellularly. The exact concentrations of the drug at the receptor sites are not known, using this method. However, this method has an advantage over the perfusion method, in that it gives a more correct picture from the electrophysiological point of view (Segal, loc cit).\nIntracellular responses to AF150 of CA1 neurons in the hippocampal slice were recorded, using the method of Segal. Small hyperpolarizing current pulses (current traces not shown) were alternated with stimulation of the Schaffer-commissural afferents producing postsynaptic potentials."}},
  "data": [
    {"smiles": "CC1=NCC2(CN3CCC2CC3)O1", "note": "(racemic) [AF125, 2-Methyl-spiro(1,3 oxazoline-5,3')quinuclidine]", "values": [
      {"measurement": "Altered spontaneous motor activity (Mot)", "setting": "[1]; 5 mg/kg i.v.", "value": "dec"},
      {"measurement": "Lacrimation (Lac)", "setting": "[1]; 5 mg/kg i.v.", "value": "sli"},
      {"measurement": "Mydriasis (Myd)", "setting": "[1]; 5 mg/kg i.v.", "value": "sli"},
      {"measurement": "Salivation (Sal)", "setting": "[1]; 5 mg/kg i.v.", "value": "sli"},
      {"measurement": "Analgesia (Ana)", "setting": "[1]; 5 mg/kg i.v.", "value": "5/5"},
      {"measurement": "Convulsive seizure (Con)", "setting": "[1]; 5 mg/kg i.v.", "value": "0/5"},
      {"measurement": "Respiratory distress (Res)", "setting": "[1]; 5 mg/kg i.v.", "value": "0/5"},
      {"measurement": "Tremors (Tre)", "setting": "[1]; 5 mg/kg i.v.", "value": "0/5"},
      {"measurement": "Altered spontaneous motor activity (Mot)", "setting": "[1]; 10 mg/kg i.v.", "value": "dec"},
      {"measurement": "Diarrhea (Dia)", "setting": "[1]; 10 mg/kg i.v.", "value": "sli"},
      {"measurement": "Hypothermia (Hyp)", "setting": "[1]; 10 mg/kg i.v.", "value": "sli"},
      {"measurement": "Lacrimation (Lac)", "setting": "[1]; 10 mg/kg i.v.", "value": "sli"},
      {"measurement": "Mydriasis (Myd)", "setting": "[1]; 10 mg/kg i.v.", "value": "sli"},
      {"measurement": "Piloerection (Pil)", "setting": "[1]; 10 mg/kg i.v.", "value": "sli"},
      {"measurement": "Salivation (Sal)", "setting": "[1]; 10 mg/kg i.v.", "value": "mod"},
      {"measurement": "Analgesia (Ana)", "setting": "[1]; 10 mg/kg i.v.", "value": "5/5"},
      {"measurement": "Convulsive seizure (Con)", "setting": "[1]; 10 mg/kg i.v.", "value": "0/5"},
      {"measurement": "Respiratory distress (Res)", "setting": "[1]; 10 mg/kg i.v.", "value": "0/5"},
      {"measurement": "Tremors (Tre)", "setting": "[1]; 10 mg/kg i.v.", "value": "0/5"},
      {"measurement": "Convulsive seizure (Con)", "setting": "[1]; 10 mg/kg p.os", "value": "0/5"},
      {"measurement": "Respiratory distress (Res)", "setting": "[1]; 10 mg/kg p.os", "value": "0/5"},
      {"measurement": "Tremors (Tre)", "setting": "[1]; 10 mg/kg p.os", "value": "0/5"},
      {"measurement": "Altered spontaneous motor activity (Mot)", "setting": "[1]; 20 mg/kg i.v., Table 9", "value": "dec"},
      {"measurement": "Diarrhea (Dia)", "setting": "[1]; 20 mg/kg i.v., Table 9", "value": "mod"},
      {"measurement": "Hypothermia (Hyp)", "setting": "[1]; 20 mg/kg i.v., Table 9", "value": "mod"},
      {"measurement": "Lacrimation (Lac)", "setting": "[1]; 20 mg/kg i.v., Table 9", "value": "sev"},
      {"measurement": "Mydriasis (Myd)", "setting": "[1]; 20 mg/kg i.v., Table 9", "value": "mod"},
      {"measurement": "Piloerection (Pil)", "setting": "[1]; 20 mg/kg i.v., Table 9", "value": "mod"},
      {"measurement": "Salivation (Sal)", "setting": "[1]; 20 mg/kg i.v., Table 9", "value": "sev"},
      {"measurement": "Analgesia (Ana)", "setting": "[1]; 20 mg/kg i.v., Table 9", "value": "5/5"},
      {"measurement": "Convulsive seizure (Con)", "setting": "[1]; 20 mg/kg i.v., Table 9", "value": "0/5"},
      {"measurement": "Respiratory distress (Res)", "setting": "[1]; 20 mg/kg i.v., Table 9", "value": "1/5"},
      {"measurement": "Tremors (Tre)", "setting": "[1]; 20 mg/kg i.v., Table 9", "value": "2/5"},
      {"measurement": "Lacrimation (Lac)", "setting": "[1]; 20 mg/kg p.os", "value": "sli"},
      {"measurement": "Salivation (Sal)", "setting": "[1]; 20 mg/kg p.os", "value": "sli"},
      {"measurement": "Analgesia (Ana)", "setting": "[1]; 20 mg/kg p.os", "value": "0/5"},
      {"measurement": "Convulsive seizure (Con)", "setting": "[1]; 20 mg/kg p.os", "value": "0/5"},
      {"measurement": "Respiratory distress (Res)", "setting": "[1]; 20 mg/kg p.os", "value": "0/5"},
      {"measurement": "Tremors (Tre)", "setting": "[1]; 20 mg/kg p.os", "value": "0/5"},
      {"measurement": "Altered spontaneous motor activity (Mot)", "setting": "[1]; 40 mg/kg i.v.", "value": "dec"},
      {"measurement": "Diarrhea (Dia)", "setting": "[1]; 40 mg/kg i.v.", "value": "mod"},
      {"measurement": "Hypothermia (Hyp)", "setting": "[1]; 40 mg/kg i.v.", "value": "mod"},
      {"measurement": "Lacrimation (Lac)", "setting": "[1]; 40 mg/kg i.v.", "value": "sev"},
      {"measurement": "Mydriasis (Myd)", "setting": "[1]; 40 mg/kg i.v.", "value": "mod"},
      {"measurement": "Piloerection (Pil)", "setting": "[1]; 40 mg/kg i.v.", "value": "mod"},
      {"measurement": "Salivation (Sal)", "setting": "[1]; 40 mg/kg i.v.", "value": "sev"},
      {"measurement": "Analgesia (Ana)", "setting": "[1]; 40 mg/kg i.v.", "value": "5/5"},
      {"measurement": "Convulsive seizure (Con)", "setting": "[1]; 40 mg/kg i.v.", "value": "1/5"},
      {"measurement": "Respiratory distress (Res)", "setting": "[1]; 40 mg/kg i.v.", "value": "3/5"},
      {"measurement": "Tremors (Tre)", "setting": "[1]; 40 mg/kg i.v.", "value": "5/5"},
      {"measurement": "Altered spontaneous motor activity (Mot)", "setting": "[1]; 40 mg/kg p.os", "value": "dec"},
      {"measurement": "Diarrhea (Dia)", "setting": "[1]; 40 mg/kg p.os", "value": "sli"},
      {"measurement": "Hypothermia (Hyp)", "setting": "[1]; 40 mg/kg p.os", "value": "sli"},
      {"measurement": "Lacrimation (Lac)", "setting": "[1]; 40 mg/kg p.os", "value": "mod"},
      {"measurement": "Piloerection (Pil)", "setting": "[1]; 40 mg/kg p.os", "value": "sli"},
      {"measurement": "Salivation (Sal)", "setting": "[1]; 40 mg/kg p.os", "value": "sli"},
      {"measurement": "Analgesia (Ana)", "setting": "[1]; 40 mg/kg p.os", "value": "3/5"},
      {"measurement": "Convulsive seizure (Con)", "setting": "[1]; 40 mg/kg p.os", "value": "0/5"},
      {"measurement": "Respiratory distress (Res)", "setting": "[1]; 40 mg/kg p.os", "value": "0/5"},
      {"measurement": "Tremors (Tre)", "setting": "[1]; 40 mg/kg p.os", "value": "0/5"},
      {"measurement": "Altered spontaneous motor activity (Mot)", "setting": "[1]; 50 mg/kg p.os", "value": "dec"},
      {"measurement": "Diarrhea (Dia)", "setting": "[1]; 50 mg/kg p.os", "value": "sli"},
      {"measurement": "Hypothermia (Hyp)", "setting": "[1]; 50 mg/kg p.os", "value": "sli"},
      {"measurement": "Lacrimation (Lac)", "setting": "[1]; 50 mg/kg p.os", "value": "mod"},
      {"measurement": "Mydriasis (Myd)", "setting": "[1]; 50 mg/kg p.os", "value": "sli"},
      {"measurement": "Piloerection (Pil)", "setting": "[1]; 50 mg/kg p.os", "value": "mod"},
      {"measurement": "Salivation (Sal)", "setting": "[1]; 50 mg/kg p.os", "value": "mod"},
      {"measurement": "Analgesia (Ana)", "setting": "[1]; 50 mg/kg p.os", "value": "5/5"},
      {"measurement": "Convulsive seizure (Con)", "setting": "[1]; 50 mg/kg p.os", "value": "0/5"},
      {"measurement": "Respiratory distress (Res)", "setting": "[1]; 50 mg/kg p.os", "value": "0/5"},
      {"measurement": "Tremors (Tre)", "setting": "[1]; 50 mg/kg p.os", "value": "2/5"},
      {"measurement": "LD50", "setting": "[1]; Intravenous Injection, 95% Confidence Limits 66.6 - 71.2", "value": 68.9, "unit": "mg/kg"},
      {"measurement": "LD50", "setting": "[1]; Oral Administration, 95% Confidence Limits 118.4 - 152.5", "value": 134.4, "unit": "mg/kg"},
      {"measurement": "Side-effects", "setting": "[2]", "value": "Only two saline-injected rats treated with AF125 had diarrhoea"},
      {"measurement": "correct choices out of the first eight entries", "setting": "[2]; AF64A-injected rats", "value": "6.53±0.36"}
    ]},
    {"smiles": "CC1=NCC2(CCN(C)CC2)O1", "note": "[AF150, 2-Methyl-spiro(1,3-oxazoline-5,4')-1'-methylpiperidine]", "values": [
      {"measurement": "slow AHP (Ca++-dependent K+ conductance)", "setting": "[3]; applied topically by microdrops", "value": "blocks the slow AHP"},
      {"measurement": "depolarization", "setting": "[3]; applied topically by microdrops (AF150: 100 µM)", "value": "potent depolarizing response"},
      {"measurement": "input resistance at rest", "setting": "[3]; microdrops (100 µM)", "value": "real increase in input resistance at rest"},
      {"measurement": "postsynaptic potentials (PSPs)", "setting": "[3]; microdrops (100 µM)", "value": "small reduction in postsynaptic potentials"}
    ]}
  ]
}
